Test results published in article PMC7083565, “In vitro metabolism, reaction phenotyping, enzyme kinetics, CYP inhibition and induction potential of ataluren” (Pharmacology Research & Perspectives, 2020).

Assays:
CYP2C8 = target: T1, CYP2C8 (Homo sapiens, UniProt P10632); assay: CYP inhibition in pooled human liver microsomes: CYP2C8; format: in vitro ADME
T1 construct: tissue XenoTech LLC, Celsis-In Vitro Technologies, or Tissue Transformation Technologies; host or cells: pooled human liver microsomes
T1 sequence (P10632 1-490): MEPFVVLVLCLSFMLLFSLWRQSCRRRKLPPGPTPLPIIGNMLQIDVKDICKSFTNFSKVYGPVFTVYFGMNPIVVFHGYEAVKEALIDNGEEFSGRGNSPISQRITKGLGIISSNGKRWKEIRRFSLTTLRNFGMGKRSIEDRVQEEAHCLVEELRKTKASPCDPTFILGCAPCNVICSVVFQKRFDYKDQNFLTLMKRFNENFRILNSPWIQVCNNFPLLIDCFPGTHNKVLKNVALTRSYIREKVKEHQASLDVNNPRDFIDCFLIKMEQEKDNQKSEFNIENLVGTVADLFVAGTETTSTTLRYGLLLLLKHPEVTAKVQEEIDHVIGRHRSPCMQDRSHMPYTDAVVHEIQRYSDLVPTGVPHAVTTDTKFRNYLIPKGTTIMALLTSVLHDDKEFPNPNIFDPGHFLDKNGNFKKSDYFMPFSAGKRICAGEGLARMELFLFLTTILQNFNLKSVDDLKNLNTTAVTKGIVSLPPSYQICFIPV
Protocol: The final concentration of each probe substrate was near the experimentally determined Km value for the indicated enzyme. Ataluren or prototypical CYP inhibitors (positive controls) was incubated (n = 3) with probe substrates and HLM in 100 mmol/L phosphate buffer (pH 7.4) in a total volume of approximately 0.25 mL, and the reactions were initiated by the addition of 1 mmol/L NADPH at 37°C. The reactions were carried out using previously established conditions to ensure linearity with respect to protein concentration and incubation time (Table S1). Incubations were stopped with the addition of ice‐cold acetonitrile. Metabolite formation in incubations with test compound and control inhibitors was assessed with LC‐MS/MS methods for each of the reaction products as described in Table S2. […] After 7 minutes incubation at 37°C, the reaction was stopped by the addition of ice‐cold acetonitrile, followed by membrane plate filtration. The filtrates were used for LC‐MS/MS analysis. Enzyme activity remaining at each nonzero ataluren concentration after incubation was normalized against control sample (zero ataluren concentration, enzyme activity = 100%), and the % remaining enzyme activity values were used for IC50 calculation. IC50 values were determined by nonlinear regression with GraphPad Prism 5 using the following four‐parameter sigmoidal‐logistic IC50 equation: Fit=background+range-background/[1+I/IC50^slope]
Where, I is the inhibitor concentration, and background was set to 0 and range to 100, as percent of control values are utilized. K i was determined by nonlinear regression with GraphPad Prism 5 using best fit model.

human hepatocytes = assay: MTT cytotoxicity assay in human hepatocytes; format: cell-based; conditions: at the concentrations tested (4, 40, 400 µmol/L), data not shown

O=C(O)c1cccc(-c2noc(-c3ccccc3F)n2)c1 [ataluren, Ataluren]
IC50 (CYP2C8; Amodiaquine N-deethylase, pooled HLM, n=3, (95% confidence interval)): 163 µM | mechanism of inhibition (CYP2C8; CYP2C8, amodiaquine N-deethylase): noncompetitive inhibitor | Ki (CYP2C8; CYP2C8, noncompetitive, mean ± SE, n = 3): 169 ± 6.19 µM | IC50 (CYP2C8; human, pooled human liver microsomes, pH 7.4, CYP2C8, HLM): 165 µM | cytotoxicity (MTT assay) (human hepatocytes): not cytotoxic
